Data published in patent publication US11358987B2, “Albicidin derivatives, their use and synthesis” (priority 2018, dated 2022).
≈ marks a conversion by molar mass, not a printed value. Like-named read-outs stand apart in the source and are kept apart here.

Experiments:
Experiment in all cases: Microdilution assay, MIC determination (CLSI M07-A9)
Type in all cases: cell-based
B. subtilis DSM10 = conditions: Bacillus subtilis
Protocol: (§1) E. coli DSM 1116; E. coli BW25113; S. typhimurium TA100; Bacillus subtilis DSM10; M. phlei DSM750 and Micrococcus luteus DSM1790
(§2) The tests were performed using the micro dilution method.
(§3) The determination of MIC values was performed according to the ninth edition of the Approved Standard M07-A9 (CLSI. Methods for Dilution Antimicrobial Susceptibility Tests for Bacteria That Grow Aerobically; Approved Standard-Ninth Edition. CLSI document M07-A9. Wayne, Pa.: Clinical and Laboratory Standards Institute; 2012.)
(§4) The test was carried out for the six different bacterial strains 20 μL of cryo stock of each strain were inoculated in 20 mL of LB media (Lysogeny broth: 10 g/L peptone, 5 g/L yeast extract, 5 g/L NaCl) followed by incubation over night at 37° C., 200 rpm. The test inoculum was adjusted by the 0.5 McFarland Standard (OD625 from 0.08 to 0.1). Within 15 min of preparation, the adjusted inoculum suspension was diluted in MHBII media (BBL™ Mueller-Hinton Broth II, Becton, Dickinson and Company, New Jersey/USA) so that each well contained approximately 5×10^5 CFU/mL in a final volume of 100 μL. 95 μL of the inoculum were applied per well and 5 μL of the (diluted) antibiotic substance were added.
(§5) Previously the dry antibiotic compounds were dissolved in DMSO (100%) with a concentration of 2560 μg/mL and the resulting stock solutions were further diluted in DMSO (100%). 5 μL of each antibiotic dilution were applied to the microdilution tray to reach final concentrations of 64 μg/mL to 0.008 μg/mL. One row of each well plate was left as a growth control without antibiotic substances and another row of the microdilution tray was used as sterility control (only MHB II-media). The antimicrobial effect of the solvent (DMSO) was tested by adding 5 μL DMSO to several wells without antibiotics.
(§6) Purity check and cell titer control were performed according to International Standard M07-A9 on Mueller-Hinton II Agar (Mueller Hinton II Broth, 15 g/L agar-agar).
(§7) Both microdilution trays and agar plates were incubated at 37° C. for 20 h and subsequently analyzed visually.

E. coli BW25113 = conditions: Escherichia coli
Protocol: as §1, §2, §3, §4, §5, §6, §7

S. typhimurium TA100 = conditions: Salmonella enterica, 20 h
Protocol: as §1, §2, §3, §4, §5, §6, §7

E. coli DSM1116 = conditions: Escherichia coli
Protocol: as §1, §2, §3, §4, §5, §6, §7

M. luteus DSM1790 = conditions: Micrococcus luteus
Protocol: as §1, §2, §3, §4, §5, §6, §7

M. phlei DSM750 = conditions: Mycolicibacterium phlei
Protocol: as §1, §2, §3, §4, §5, §6, §7

[1] = B. subtilis DSM10, 37° C., 20 h, MHBII media, read-out: MIC
[2] = E. coli BW25113, 37° C., 20 h, MHBII media, read-out: MIC
[3] = S. typhimurium TA100, 37° C., MHBII media, read-out: MIC
[4] = E. coli DSM1116, 37° C., 20 h, MHBII media, read-out: MIC
[5] = M. luteus DSM1790, 37° C., 20 h, MHBII media, read-out: MIC
[6] = M. phlei DSM750, 37° C., 20 h, MHBII media, read-out: MIC

SMILES	MIC (B. subtilis DSM10; [1])	MIC (E. coli BW25113; [2])	MIC (S. typhimurium TA100; [3])	MIC (E. coli DSM1116; [4])	MIC (M. luteus DSM1790; [5])	MIC (M. phlei DSM750; [6])	MIC (B. subtilis DSM10; DSM10, 20 h)	MIC (E. coli BW25113; BW25113, 20 h)	MIC (S. typhimurium TA100; TYPHIMURIUM)	MIC (E. coli DSM1116; DSM1116, 20 h)	MIC (M. luteus DSM1790; DSM1790, 20 h)	MIC (M. phlei DSM750; DSM750, 20 h)
COc1c(NC(=O)c2ccc(NC(=O)c3ccc(NC(=O)C(Cc4cnn[nH]4)NC(=O)c4ccc(NC(=O)c5ccc(C#N)cc5)cc4)cn3)c(OC)c2O)ccc(C(=O)O)c1O (stereo not drawn) [Compound 12]	250 µg/mL (≈ 292 µM)	31 µg/mL (≈ 36.3 µM)	≤ 16 µg/mL	31 µg/mL (≈ 36.3 µM)	125 µg/mL (≈ 146 µM)	8000 µg/mL (≈ 9360 µM)						
COc1nc(C(=O)Nc2ccc(C(=O)O)c(O)c2OC)ccc1NC(=O)c1ccc(NC(=O)C(Cc2cnn[nH]2)NC(=O)c2ccc(NC(=O)/C(C)=C/c3ccc(O)cc3)cc2)cc1 (stereo not drawn) [Compound 6]	250 µg/mL (≈ 287 µM)	16 µg/mL (≈ 18.4 µM)	31 µg/mL (≈ 35.6 µM)	16 µg/mL (≈ 18.4 µM)	125 µg/mL (≈ 144 µM)	1000 µg/mL (≈ 1150 µM)						
COc1c(NC(=O)c2ccc(NC(=O)c3ccc(NC(=O)C(Cc4cnn[nH]4)NC(=O)c4ccc(NC(=O)/C(C)=C/c5ccc(O)cc5)cc4)nc3)c(OC)c2O)ccc(C(=O)O)c1O (stereo not drawn) [Compound 11]	500 µg/mL (≈ 564 µM)	500 µg/mL (≈ 564 µM)	4000 µg/mL (≈ 4520 µM)	1000 µg/mL (≈ 1130 µM)	4000 µg/mL (≈ 4520 µM)	8000 µg/mL (≈ 9030 µM)						
COc1c(NC(=O)c2ccc(NC(=O)c3ccc(NC(=O)C(Cc4cnn[nH]4)NC(=O)c4ccc(NC(=O)/C(C)=C/c5ccc(O)cc5)nn4)cc3)c(OC)c2O)ccc(C(=O)O)c1O (stereo not drawn) [Compound 3]	1000 µg/mL (≈ 1130 µM)	31 µg/mL (≈ 35 µM)	31 µg/mL (≈ 35 µM)	31 µg/mL (≈ 35 µM)	4000 µg/mL (≈ 4510 µM)	2000 µg/mL (≈ 2260 µM)						
COc1nc(C(=O)O)ccc1NC(=O)c1ccc(NC(=O)c2ccc(NC(=O)C(Cc3cnn[nH]3)NC(=O)c3ccc(NC(=O)/C(C)=C/c4ccc(O)cc4)cc3)cc2)c(OC)c1O (stereo not drawn) [Compound 7]	2000 µg/mL (≈ 2300 µM)	500 µg/mL (≈ 575 µM)	250 µg/mL (≈ 287 µM)	250 µg/mL (≈ 287 µM)	> 8000 µg/mL	8000 µg/mL (≈ 9200 µM)						
COc1c(NC(=O)c2ccc(NC(=O)c3ccc(NC(=O)C(Cc4cnn[nH]4)NC(=O)c4ccc(NC(=O)c5ccc(C#N)cc5)cn4)cn3)c(OC)c2O)ccc(C(=O)O)c1O (stereo not drawn) [Compound 13]	125 µg/mL (≈ 146 µM)	31 µg/mL (≈ 36.2 µM)	4000 µg/mL (≈ 4670 µM)	31 µg/mL (≈ 36.2 µM)	63 µg/mL (≈ 73.6 µM)	1000 µg/mL (≈ 1170 µM)						
CC(C)Oc1c(NC(=O)c2ccc(NC(=O)[C@H](Cc3c[nH]nn3)NC(=O)c3ccc(NC(=O)c4ccc(C#N)cc4)cc3)cn2)ccc(C(=O)Nc2ccc(C(=O)O)cc2)c1O [Compound 17]	31 µg/mL (≈ 37 µM)	31 µg/mL (≈ 37 µM)	≤ 16 µg/mL	31 µg/mL (≈ 37 µM)	125 µg/mL (≈ 149 µM)	500 µg/mL (≈ 597 µM)						
COc1c(NC(=O)c2ccc(NC(=O)c3ccc(NC(=O)C(Cc4cnn[nH]4)NC(=O)c4ccc(NC(=O)/C(C)=C/c5ccc(O)cc5)cn4)cc3)c(OC)c2O)ccc(C(=O)O)c1O (stereo not drawn) [Compound 1]							250 µg/mL (≈ 282 µM)	16 µg/mL (≈ 18.1 µM)	16 µg/mL (≈ 18.1 µM)	16 µg/mL (≈ 18.1 µM)	500 µg/mL (≈ 564 µM)	2000 µg/mL (≈ 2260 µM)
COc1c(NC(=O)c2ccc(NC(=O)c3ccc(NC(=O)[C@H](CC#N)NC(=O)c4ccc(NC(=O)/C(C)=C/c5ccc(O)cc5)cc4)cc3)c(OC)c2O)ccc(C(=O)O)c1O [Albicidin]							250 µg/mL (≈ 297 µM)	63 µg/mL (≈ 74.7 µM)	63 µg/mL (≈ 74.7 µM)	63 µg/mL (≈ 74.7 µM)	1000 µg/mL (≈ 1190 µM)	2000 µg/mL (≈ 2370 µM)
COc1c(NC(=O)c2ccc(NC(=O)c3ccc(NC(=O)C(Cc4cnn[nH]4)NC(=O)c4ccc(NC(=O)/C(C)=C/c5ccc(O)cc5)nc4)cc3)c(OC)c2O)ccc(C(=O)O)c1O (stereo not drawn) [Compound 2]	500 µg/mL (≈ 564 µM)	16 µg/mL (≈ 18.1 µM)	16 µg/mL (≈ 18.1 µM)	31 µg/mL (≈ 35 µM)	2000 µg/mL (≈ 2260 µM)	2000 µg/mL (≈ 2260 µM)						
COc1c(NC(=O)c2ccc(NC(=O)c3ccc(NC(=O)C(Cc4cnn[nH]4)NC(=O)c4ccc(NC(=O)/C(C)=C/c5ccc(F)cc5)cn4)cc3O)c(OC)c2O)ccc(C(=O)O)c1O (stereo not drawn) [Compound 5]	250 µg/mL (≈ 277 µM)	63 µg/mL (≈ 69.7 µM)	16 µg/mL (≈ 17.7 µM)	16 µg/mL (≈ 17.7 µM)	2000 µg/mL (≈ 2210 µM)	2000 µg/mL (≈ 2210 µM)						
